Experimental data from patent publication US9006257B2, “Bicyclic compounds as mPGES-1 inhibitors” (Glenmark Pharmaceuticals S.A., priority 2012, dated 2015).

Target: T1, Recombinant human mPGES-1 (Homo sapiens, UniProt O14684)
T1 construct: made in house; host or cells: CHO cells
T1 sequence (O14684 1-152): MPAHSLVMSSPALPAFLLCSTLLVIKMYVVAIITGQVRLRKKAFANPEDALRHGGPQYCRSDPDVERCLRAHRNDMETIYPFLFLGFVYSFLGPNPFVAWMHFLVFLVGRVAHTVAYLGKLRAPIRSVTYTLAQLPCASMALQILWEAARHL
Test: In-vitro mPGES-1 inhibitor screening (inhibition of PGE2 formation from PGH2, HTRF detection)
Assay type: biochemical
Conditions: for inhibition at 1 µM: 1 μM test compound, read-out: Percentage inhibition at 1 μM; for inhibition at 1 µM / inhibition at 10 µM: crude microsomal fraction, 15 μM PGH2; for inhibition at 10 µM: 10 μM test compound, read-out: Percentage inhibition at 10 μM; for IC50: class symbol, concentration response curve
How it was run: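 PGE2 formation measured by HTRF after 1 min reaction with 15 μM PGH2, stopped with stannous chloride (11 mg/ml). Beforehand, compound and crude CHO-expressed human mPGES-1 microsomes (40-60 μg/mL) sat 10 min in phosphate/EDTA buffer with 2.5 mM GSH (0.5% DMSO final). IC50 fitted from concentration-response of % inhibition.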

Row | Structure (SMILES) | inhibition at 1 µM [%] | inhibition at 10 µM [%] | IC50 [nM]
1 | CC(C)(C)C(=O)NCc1ccc(Cl)c(C(=O)Nc2cccc3c(Nc4cccc(C(F)(F)F)c4)nccc23)n1 [Example-2, 3-Chloro-6-(pivalamidomethyl)-N-(1-((3-(trifluoromethyl)phenyl)amino)isoquinolin-5-yl)picolinamide] | 95.8 | 97.2 | < 50
2 | Cc1ccc2c(Nc3cccc(C(F)(F)F)c3)ncnc2c1NC(=O)c1c(Cl)ccc(CNC(=O)C(C)(C)C)c1F [Example-42, 6-Chloro-2-fluoro-N-(7-methyl-4-((3-(trifluoromethyl)phenyl)amino)quinazolin-8-yl)-3-(pivalamidomethyl)benzamide] | 96.5 | 99.6 | < 50
3 | CC(C)(C)C(=O)NCc1ccc(Cl)c(C(=O)Nc2cccc3c(Nc4cccc(C(F)(F)F)c4)ncnc23)c1F [Example-12, 6-Chloro-2-fluoro-3-(pivalamidomethyl)-N-(4-((3-(trifluoromethyl)phenyl)amino)quinazolin-8-yl)benzamide] | 99.4 | 99.7 | < 50
4 | Cc1nc(Nc2cccc(C(F)(F)F)c2)c2cccc(NC(=O)c3c(Cl)ccc(CNC(=O)C(C)(C)C)c3F)c2n1 [Example-33, 6-Chloro-2-fluoro-N-(2-methyl-4-((3-(trifluoromethyl)phenyl)amino)quinazolin-8-yl)-3-(pivalamidomethyl)benzamide] | 95.5 | 97.2 | < 50
5 | Cc1nc(NC(C)(C)C)c2cccc(NC(=O)c3c(Cl)ccc(CNC(=O)C(C)(C)C)c3F)c2n1 [Example-65, N-(4-(tert-Butylamino)-2-methylquinazolin-8-yl)-6-chloro-2-fluoro-3-(pivalamidomethyl)benzamide] | 94 | 93 | < 50
6 | CC(C)(C)C(=O)NCc1ccc(Cl)c(C(=O)Nc2cccc3c(Oc4cccc(C(F)(F)F)c4)ncnc23)n1 [Example-9, 3-Chloro-6-(pivalamidomethyl)-N-(4-(3-(trifluoromethyl)phenoxy)quinazolin-8-yl)picolinamide] | 99.1 | 100 | < 50

Second part, the compound after the results:

Row | inhibition at 1 µM [%] | inhibition at 10 µM [%] | IC50 [nM] | Structure (SMILES)
7 | 99.1 | 100 | < 50 | CC(C)(C)C(=O)NCc1ccc(Cl)c(C(=O)Nc2cccc3c(Oc4cc(C(F)(F)F)ccc4F)ncnc23)c1F [Example-28, 6-Chloro-2-fluoro-N-(4-(2-fluoro-5-(trifluoromethyl)phenoxy)quinazolin-8-yl)-3-(pivalamidomethyl)benzamide]
8 | 93 | 95.9 | 50 to 100 | CC(C)(C)C(=O)NCc1ccc(Cl)c(C(=O)Nc2cccc3c(Oc4cccc(C(F)(F)F)c4)nccc23)n1 [Example-6, 3-Chloro-6-(pivalamidomethyl)-N-(1-(3-(trifluoromethyl)phenoxy)isoquinolin-5-yl)picolinamide]
9 | 85.1 | 97.7 | > 100 | CC(C)(C)C(=O)NCc1ccc(Cl)c(C(=O)Nc2cccc3c(O[C@H]4CC[C@@H](C(F)(F)F)CC4)nccc23)c1 [Example-47, 2-Chloro-5-(pivalamidomethyl)-N-(1-(((1s,4s)-4-(trifluoromethyl)cyclohexyl)oxy)isoquinolin-5-yl)benzamide]
10 | 99.2 | 99.6 | < 50 | CC(C)(C)C(=O)NCc1ccc(Cl)c(C(=O)Nc2cccc3c(O[C@H]4CC[C@H](C(F)(F)F)CC4)nccc23)c1F [Example-50, 6-Chloro-2-fluoro-3-(pivalamidomethyl)-N-(1-(((1r,4r)-4-(trifluoromethyl)cyclohexyl)oxy)isoquinolin-5-yl)benzamide]
